{"source": "patent US20070054886A1", "about": "“Ras antagonists for treating neurodegenerative disorders” (RAMOT AT TEL AVIV UNIVERSITY, LTD., priority 2003, published 2007)", "system": "mice subjected to closed head injury (CHI)", "assay": "Neurobehavioral evaluation (neurological severity score, NSS) of CHI mice", "format": "in vivo, mouse", "from_the_text": "The neurological severity score (NSS) is a tool for assessing an animal's functional status. It is based on the ability of the animal to perform different motor and behavioral tasks representing motor ability, balancing, and alertness (Beni-Adani et al., 2001). Scores range from zero, achieved by healthy uninjured animals, to a maximum of 10, indicating severe neurological dysfunction, with failure of all tasks. The NSS obtained 1 hr after trauma reflects the initial severity of injury and is inversely correlated with neurological outcome. Animals were evaluated 1 hour after CHI, and again at 24 and 48 hrs and at 5 and 7 days. To assess the effect of FTS on neurological recovery, mice were randomly assigned to treatment with either FTS or vehicle (n=10 per group), administered immediately after the initial NSS evaluation. Each animal was assessed by an observer who was blinded to the treatment it had received. The extent of recovery (ΔNSS) was calculated as the difference between the NSS at 1 hr and at any subsequent time point. Thus, a higher ΔNSS reflects better recovery. This parameter therefore serves as a tool for evaluation of drug effects."}
{"compound": "CC(C)=CCC/C(C)=C/CC/C(C)=C/CSc1ccccc1C(=O)O", "note": "[FTS, farnesyl-thiosalicylic acid]", "values": [{"measurement": "median recovery after seven days (ΔNSS)", "setting": "mice processed for autoradiography and histology (4 FTS-treated), vehicle 0, p<0.05", "value": 2}, {"measurement": "mean ΔNSS on day 7 after injury", "setting": "mice, FTS 5 mg/kg i.p. 1 hr after CHI, n=10, controls 1.7", "value": 4.2}, {"measurement": "NSS 1 hour after injury", "setting": "mice, baseline before treatment, FTS-treatment group, n=10, mean±SD, scale 0-10", "value": "6.7±0.3"}, {"measurement": "reduction of CHI-induced neurological deficits / improvement of neurological status (extent of recovery)", "setting": "mice, single dose FTS 5 mg/kg, up to 7 days after CHI, P<0.0001", "value": 60, "unit": "%"}]}
